In patent US6652890B2, “Tea catechins as cancer specific proliferation inhibitors” (Purdue Research Foundation, priority 1999, dated 2003):
Entries after “also recorded” stand apart in the source; their conditions may differ. Like-named read-outs stand apart in the source and are kept apart here.

Legend:
[1] = system: HeLa (human cervical carcinoma) cells; assay: Effect on intact cells in culture (growth, morphology, DAPI); assay type: cell-based; conditions: for IC50: read-out: EGCg concentration for 50% growth arrest, FIG. 8
Description: HeLa (ATCC CCL2) cells were grown in 175 cm^2 flasks in Minimal Essential Medium (Gibco), pH 7.4, at 37° C. with 10% bovine calf serum (heat-inactivated), plus 50 mg/l gentamycin sulfate (Sigma). […] The coverslips were rinsed and the cells fixed in methanol followed by addition of fluorescent dye 4′,6-diamidino-2-phenylindole (DAPI) as described (Wolvetang et al., 1994, FEBS Lett. 339:40-44). Cells were observed and photographed at a primary magnification of 400×. HeLa (ATCC CCL2) cells were grown in 150 cm^2 flasks in Minimal Essential Medium (Gibco), pH 7.4, at 37° C. with 10% bovine calf serum (heat-inactivated), plus 50 mg/l gentamicin sulfate (Sigma).

CNOX = biological target: T1, CNOX (Mus musculus, UniProt Q8BHR2); assay: CNOX activity of intact 4T1 cells; assay type: cell-based; conditions: not effective up to and including this concentration
T1 construct: endogenous in cells; host or cells: 4T1 mouse mammary carcinoma cells (intact)
T1 sequence (Q8BHR2 1-643): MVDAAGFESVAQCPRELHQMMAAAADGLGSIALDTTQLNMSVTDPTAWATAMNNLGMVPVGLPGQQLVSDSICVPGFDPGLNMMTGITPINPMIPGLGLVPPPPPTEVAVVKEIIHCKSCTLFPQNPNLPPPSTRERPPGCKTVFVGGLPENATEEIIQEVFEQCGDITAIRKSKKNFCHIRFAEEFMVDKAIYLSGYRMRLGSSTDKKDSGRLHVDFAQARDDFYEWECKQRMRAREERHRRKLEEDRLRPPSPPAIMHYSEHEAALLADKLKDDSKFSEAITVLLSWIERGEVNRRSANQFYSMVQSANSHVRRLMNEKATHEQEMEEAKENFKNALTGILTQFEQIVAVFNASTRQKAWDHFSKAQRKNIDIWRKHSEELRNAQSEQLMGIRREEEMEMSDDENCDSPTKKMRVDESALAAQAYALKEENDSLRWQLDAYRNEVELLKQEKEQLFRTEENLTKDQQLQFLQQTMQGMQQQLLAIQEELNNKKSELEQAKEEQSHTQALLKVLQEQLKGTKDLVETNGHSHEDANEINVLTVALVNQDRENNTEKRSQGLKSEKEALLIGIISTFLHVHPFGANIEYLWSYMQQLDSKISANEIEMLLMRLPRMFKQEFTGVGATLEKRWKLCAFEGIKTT
Description: A mouse mammary tumor subpopulation line 4T1 arising from a BALB/cf C3H mouse was grown in DME-10, Dulbecco's modified Eagle's medium supplemented with 5% fetal calf serum, 5% newborn calf serum, 1 mM mixed non-essential amino acids, 2 mM L-glutamine, penicillin (100 units/ml), and streptomycin (100 μg/ml) (Miller et al., 1987, Brit. J. Can. 56:561-569 and Miller et al., 1990, Invasion Metastasis 10:101-112).
NADH oxidase activity was determined as the disappearance of NADH measured at 340 nm in a reaction mixture containing 25 mM Tris-Mes buffer (pH 7.2), 1 mM KCN, and 150 μM NADH at 37° C. Activity was measured at 340 nm with reference at 430 nm using an SLM Aminco DW-2000 spectrophotometer (Milton Roy, Rochester, N.Y.) in the dual beam mode of operation with stirring and continuous recording over two intervals of 5 min each. A millimolar extinction coefficient of 6.22 was used to determine specific activity.

tNOX = assay: Inhibition of tNOX activity of sera pooled from patients with cancer; assay type: biochemical, human
Description: NADH oxidase activity was determined as the disappearance of NADH measured at 340 nm in a reaction mixture containing 25 mM Tris-Mes buffer (pH 7.2), 1 mM KCN to inhibit low levels of mitochondrial oxidase activity, and […] at 37° C. with stirring. Activity was measured using a Hitachi U3210 or SLM Aminco DW2000 spectrophotometer with continuous recording over two intervals of 5 min each. A millimolar extinction coefficient of 6.22 was used to determine specific activity.
Authentic EGCg (Sigma) was used as the standard.
All chemicals were from Sigma (St. Louis, Mo.) unless otherwise specified. EGF was from mouse, culture grade, from Upstate Biotechnology Inc. (Lake Placid, N.Y.). Tea infusions were prepared by sequential steeping of ca. 2-g bags of tea (Lipton) in 10 ml of water for 10 min each. At the end of the infusion, bags were pressed to remove liquid.

[2] = system: 4T1 metastatic mouse mammary cancer cells; assay: Killing of 4T1 metastatic mouse mammary cancer cells in culture; assay type: cell-based; conditions: EGCg 10^−7 M, EC 10^−4 M, alone or combined
[3] = 10^−6 M EGCg twice daily for 96 h

IC50 ([1]; 72 h, in the absence of EC): 10000 nM
IC50 ([1]; 72 h, in the presence of 10^−4 M EC): 100 nM
Concentration effective in inhibiting the residual CNOX activity (CNOX): > 10^−6 M
EC50 (tNOX): 2000 nM
Substance: (−) - epigallocatechin gallate [EGCg]
Fate of treated cells ([1]; 10 μM EGCg added at t=0, 96 h, FIG. 4): did not recover and died; also recorded: stopped growing and died
Reduction of cell diameter [1, 3]: about 25%
Reduction of cell number [1, 3]: about 25%
Reduction of cell volume [1, 3]: 50%
Response of the cell line ([1]; 10^−6 M EGCg, 72 h): no response
Condensed chromatin (DAPI staining) ([1]; 10 or 50 μM EGCg, 96 h, FIG. 5): characteristic of apoptosis
Growth of HeLa cells ([1]; EGCg): almost completely inhibited
EGCg (tNOX; EGCg content at the EC50): 1 µg/mL
Increase in cell number cm^−2 over 72 h · 10^2 [2]: 520 cm^−2 · 10^2
